Measurements published in paper PMC11267363, “Supramolecular Nanofibers Ameliorate Bleomycin‐Induced Pulmonary Fibrosis by Restoring Autophagy” (Advanced Science, 2024).

How the values were obtained:
MRC-5 cells = test: Cell migration, invasion and wound-healing assay; type: cell-based, human; settings: MRC-5 cells stimulated by TGF-β1, peptide 50 µM, 24 h transwell, 48 h wound closure, n = 3
Procedure: For wound healing, cell monolayers were scratched with pipette tip. Cells were incubated with or without 10 ng ml^−1 recombinant human TGF‐β1. Ac‐GFFY‐A2 (50 µM) or A2 (50 µM) was added to the medium 1 h behind to TGF‐β1 stimulation. Images were captured at 0 and 48 h after scratching, and the lesion area was measured with Image J software. Cell invasion assay was performed using transwell chambers (8‐µm pore size, Millipore). Chambers were pre‐coated with Matrigel (30 µg per well, BD). Cells were seeded into the chamber with MEM supplemented with 0.1% FBS, and the lower well was added MEM supplemented with 20% FBS. After incubated for 24 h, non‐invaded cells on the upside were removed with cotton swap, and invaded cells were fixed with 4% paraformaldehyde, stained with 0.5% crystal violet, and then photographed under a microscope. The crystal violet stain was eluted in alcohol and quantified at OD540 nm. […]
MRC-5 cells were seeded on a 6-well plate at a density of 6×10^4 cells per well then cultured for 12 hours to adhere the walls. […] The cells were collected and centrifuged, finally the cellular uptake was measured by flow cytometry. […]
Images were captured at 0 h and 48 h after scratching, and the lesion area was measured with Image J software. […] The crystal violet stain was eluted in alcohol and quantified at OD540 nm. […]

[1] = tested on: TRB3/p62 PPIs in lung tissue; test: Co-IP, western blot and q-PCR of lung tissues from bleomycin mice; type: in vivo; settings: i.v.
Procedure: We attempted to elucidate the mechanism of Ac-GFFY-A2 peptide nanofibers in ameliorating bleomycin-induced lung fibrosis at the molecular level. The nanofibers were administered to the lung fibrosis mice model via intravenous (i.v.) injection, saline treatment as the control group. The mice were sacrificed on day 21 and lung tissues were harvested for the following detection. […] Those results confirmed the potential therapeutic efficacy of peptide nanofibers in pulmonary fibrosis at both the transcriptional and translational levels. […] Gene expression was determined relative to that of the endogenous reference gene (Gapdh) using the 2^-ΔΔCt method. […] The protein concentration was measured using BCA Protein Assay Kit (Thermo Scientific). […] The protein transferred PVDF membranes were incubated with following primary antibodies at 4°C overnight: Then the membranes were incubated with horseradish peroxidase (HRP)-conjugated secondary antibodies at room temperature for 1 h, and protein signals were detected using an enhanced chemiluminescence kit (Pierce). […] The co -precipitates were resolved using SDS-PAGE and detected with immunoblotting. […] Fluorescence imaging was performed using a IVIS Lumina II imaging (PerkinElmer, USA) at different time point post injection. […]

Ac-GFFYGGWLTRLLQTK-OH [Ac-GFFY-A2]
rate of migration and invasion (MRC-5 cells): decline in the rate of migration and invasion
mRNA expression levels of Col 1, FN and α-SMA in lung tissues (q-PCR) ([1]; day 21, versus saline treatment control group): significantly lower
TRB3/p62 interaction in lung tissue (co-IP) ([1]; lung tissues harvested on day 21): could disturb the interaction between TRB3 and p62 in lung tissue
